US11434267B2, “Peptides having reduced toxicity that stimulate cholesterol efflux” (The Regents of the University of California, priority 2013, dated 2022)
Positions of bridges follow the written chain, without caps; N, C: chain ends. Non-standard residues stand in square brackets, D forms with d. No end group written: not given here. R8 = C=CCCCCCC[C@@](C)(N)C(=O)O; Cit = NC(=O)NCCC[C@H](N)C(=O)O; S5 = C=CCCC[C@](C)(N)C(=O)O

Test system: not given
Assay: not given
Details: scaled values = (raw log(P) + 2.061)/4.484; cited from earlier work

| Compound | Hydrophobicity |
| --- | --- |
| C[C@H](N)C(=O)O [Alanine] | 0.616 |
| N=C(N)NCCC[C@H](N)C(=O)O [Arginine] | 0.000 |
| NC(=O)C[C@H](N)C(=O)O [Asparagine] | 0.236 |
| N[C@@H](CCC(=O)O)C(=O)O [Glutamate] | 0.043 |
| NCC(=O)O [Glycine] | 0.501 |
| N[C@@H](Cc1c[nH]cn1)C(=O)O [Histidine] | 0.165 |
| CC[C@H](C)[C@H](N)C(=O)O [Isoleucine] | 0.943 |
| NCCCC[C@H](N)C(=O)O [Lysine] | 0.283 |
| CSCC[C@H](N)C(=O)O [Methionine] | 0.738 |
| N[C@@H](Cc1ccccc1)C(=O)O [Phenylalanine] | 1.00 |
| O=C(O)[C@@H]1CCCN1 [Proline] | 0.711 |
| C[C@@H](O)[C@H](N)C(=O)O [Threonine] | 0.450 |
| N[C@@H](Cc1c[nH]c2ccccc12)C(=O)O [Tryptophan] | 0.878 |
| N[C@@H](Cc1ccc(O)cc1)C(=O)O [Tyrosine] | 0.880 |
| CC(C)[C@H](N)C(=O)O [Valine] | 0.825 |

Target: T1, ABCA1 (Mus musculus, UniProt P41233)
T1 construct: treated (18 h) with a cAMP analog to induce ABCA1 protein expression; endogenous in cells; host or cells: J774 macrophages
T1 sequence (P41233 whole entry): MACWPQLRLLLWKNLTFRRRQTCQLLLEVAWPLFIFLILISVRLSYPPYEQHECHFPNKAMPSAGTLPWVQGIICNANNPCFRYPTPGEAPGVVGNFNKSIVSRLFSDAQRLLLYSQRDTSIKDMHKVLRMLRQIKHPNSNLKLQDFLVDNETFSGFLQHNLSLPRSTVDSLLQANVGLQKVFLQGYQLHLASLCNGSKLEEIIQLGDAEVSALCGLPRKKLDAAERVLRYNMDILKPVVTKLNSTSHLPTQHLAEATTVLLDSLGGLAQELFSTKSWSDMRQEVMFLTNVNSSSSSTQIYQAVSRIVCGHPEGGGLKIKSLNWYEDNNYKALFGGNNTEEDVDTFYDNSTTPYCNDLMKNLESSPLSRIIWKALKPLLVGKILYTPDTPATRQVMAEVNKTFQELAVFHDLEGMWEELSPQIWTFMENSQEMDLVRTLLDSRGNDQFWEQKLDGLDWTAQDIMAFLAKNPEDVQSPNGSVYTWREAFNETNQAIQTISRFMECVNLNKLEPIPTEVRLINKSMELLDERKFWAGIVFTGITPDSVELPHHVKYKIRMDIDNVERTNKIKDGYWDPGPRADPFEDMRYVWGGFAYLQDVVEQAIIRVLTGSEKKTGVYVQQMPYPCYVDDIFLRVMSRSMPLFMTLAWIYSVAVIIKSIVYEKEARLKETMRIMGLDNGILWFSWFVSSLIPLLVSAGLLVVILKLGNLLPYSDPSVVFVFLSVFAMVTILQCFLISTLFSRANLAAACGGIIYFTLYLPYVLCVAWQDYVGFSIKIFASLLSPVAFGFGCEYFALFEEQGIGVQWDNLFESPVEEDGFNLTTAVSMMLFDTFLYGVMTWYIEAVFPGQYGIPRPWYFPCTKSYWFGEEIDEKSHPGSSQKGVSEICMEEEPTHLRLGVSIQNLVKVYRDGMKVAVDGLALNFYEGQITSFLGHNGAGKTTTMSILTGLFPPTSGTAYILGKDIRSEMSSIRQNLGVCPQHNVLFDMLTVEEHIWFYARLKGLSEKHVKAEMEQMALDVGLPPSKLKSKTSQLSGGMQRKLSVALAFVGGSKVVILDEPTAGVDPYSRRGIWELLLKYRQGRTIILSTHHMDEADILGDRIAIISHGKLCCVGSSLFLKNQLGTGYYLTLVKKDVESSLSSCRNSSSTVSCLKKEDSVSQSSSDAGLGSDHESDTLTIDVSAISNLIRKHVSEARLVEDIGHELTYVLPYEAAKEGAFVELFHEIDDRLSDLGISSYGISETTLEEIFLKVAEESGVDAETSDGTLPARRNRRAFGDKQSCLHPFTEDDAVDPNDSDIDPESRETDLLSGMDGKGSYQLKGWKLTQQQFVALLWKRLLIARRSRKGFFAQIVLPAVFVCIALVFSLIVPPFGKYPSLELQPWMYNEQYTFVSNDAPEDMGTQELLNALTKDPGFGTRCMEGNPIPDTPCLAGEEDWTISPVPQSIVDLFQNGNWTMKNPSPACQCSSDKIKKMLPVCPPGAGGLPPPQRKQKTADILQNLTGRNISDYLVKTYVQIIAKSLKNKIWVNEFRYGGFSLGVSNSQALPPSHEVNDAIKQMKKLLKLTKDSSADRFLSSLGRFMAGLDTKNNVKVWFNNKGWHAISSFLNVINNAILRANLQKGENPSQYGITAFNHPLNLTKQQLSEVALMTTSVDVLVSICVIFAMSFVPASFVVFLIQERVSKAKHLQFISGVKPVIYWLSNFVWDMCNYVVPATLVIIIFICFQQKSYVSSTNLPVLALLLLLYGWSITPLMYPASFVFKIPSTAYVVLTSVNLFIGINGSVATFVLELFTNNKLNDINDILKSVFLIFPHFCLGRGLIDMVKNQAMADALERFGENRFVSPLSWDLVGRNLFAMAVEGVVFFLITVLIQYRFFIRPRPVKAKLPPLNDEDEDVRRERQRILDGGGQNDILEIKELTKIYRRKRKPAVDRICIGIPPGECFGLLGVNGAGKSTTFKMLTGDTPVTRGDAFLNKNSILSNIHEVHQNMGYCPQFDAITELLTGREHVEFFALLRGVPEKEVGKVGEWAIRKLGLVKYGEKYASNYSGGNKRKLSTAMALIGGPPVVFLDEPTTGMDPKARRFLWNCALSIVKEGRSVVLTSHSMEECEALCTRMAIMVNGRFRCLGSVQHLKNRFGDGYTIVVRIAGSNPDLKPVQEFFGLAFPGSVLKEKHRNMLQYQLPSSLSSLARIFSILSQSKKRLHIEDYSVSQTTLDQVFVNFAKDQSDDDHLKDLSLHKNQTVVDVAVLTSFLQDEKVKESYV
Assay: ABCA1-dependent cholesterol efflux from [3H]cholesterol-labeled J774 macrophages with and without cAMP
Format: cell-based
Details: J774, cAMP vs no cAMP; 10 μg/ml lipid-free

| Compound | ABCA1-dependent cholesterol efflux activity |
| --- | --- |
| CS6256A: ATI-5261 with glutamine at positions 3 and 23 and a chemical staple (EVQSKLEEWFAAF[S5]EFAEEF[R8]AQLKS; staple 14-21) | highly dependent on ABCA1 comparable to ATI-5261 |
| CS6257: ATI-5261 with uncharged alanine at positions 3 and 23 and a chemical staple (EVASKLEEWFAAF[S5]EFAEEF[R8]AALKS; staple 14-21) | highly dependent on ABCA1 comparable to ATI-5261 |
| CS6259: leucine form of ATI-5261 with glutamine at positions 3 and 23 and a chemical staple (EVQSKLEEWLAAL[R8]ELAEEL[S5]AQLKS; staple 14-21) | highly dependent on ABCA1 comparable to ATI-5261 |
| T7983-11: Y26 analog of T6991-2 (S26→Y for 125I labeling) (EV[Cit]SKLEEWIAAI[Cit]EIAEEILARLKY) [Peptide T7983-11] | functional, mediating high-levels of cholesterol efflux in an ABCA1-dependent manner |

Target: T1, ABCA1
Assay: as above
Format: cell-based
Details: cAMP treated J774, dose response, 4 h
Source text: Suitable cholesterol efflux assays are described in, e.g., Bielicki, J. K and Oda, M. N., Biochemistry, 41:2089-2096 (2002); Jia et al., Biochem. Biophys. Res. Common., 297:206-213 (2002). In some embodiments, a polypeptide known to mediate cholesterol efflux (e.g., helix 9/10 of Apo A-I) is used to screen for additional mediators of cholesterol efflux in a cell based assay. For example, cell lines in which cholesterol efflux can be enhanced using a cAMP analog that up-regulates ABCA1 protein expression (e.g., J774 macrophages) can conveniently be used to assess the ability of a polypeptide of the present invention to mediate cholesterol efflux. The cells are incubated with labeled cholesterol (e.g., [^3H]cholesterol) under conditions appropriate for cholesterol uptake by the cells. Thus, cAMP or cAMP analogs (e.g., CPT-cAMP) are incubated with the cells for a suitable time before the initiation of cellular cholesterol efflux, i.e., prior to contacting the cells with a test polypeptide. Measurement of labeled cholesterol appearing in the medium is used to determine the cholesterol efflux mediating activity of the test polypeptide.
Aliphatic analogs of ATI-5261 lacking phenylalanine residues retained potent ABCA1 selective cholesterol efflux activity (FIG. 7). J774 macrophages were labeled (48 h) with [^3H]cholesterol and treated (18 h) with a cAMP analog to induce ABCA1 protein expression; cells incubated in the absence of cAMP (left bars) served as controls. […] Peptides were used at a concentration of 30 μg/ml, which was maximal for promoting cholesterol efflux activity. Panel B—Dependence of cholesterol efflux on the concentration of peptides. […] Results are expressed as the difference in cholesterol efflux (%/4 h) observed using cAMP treated vs. non-treated J774 cells. Values are means±SD, n=3.

| peptide concentration at saturation of cholesterol efflux | Compound | Km for cholesterol efflux |
| --- | --- | --- |
| 3 µg/mL | T6275-5: citrulline form of LeuATI-5261 with single citrulline14→L substitution (EV[Cit]SKLEEWLAALLELAEELLARLKS) [Peptide T6275-5] | – |
| 3 µg/mL | T7983-11: Y26 analog of T6991-2 (S26→Y for 125I labeling) (EV[Cit]SKLEEWIAAI[Cit]EIAEEILARLKY) [Peptide T7983-11] | – |

| Compound | peptide concentration at saturation of cholesterol efflux | Km for cholesterol efflux |
| --- | --- | --- |
| T5505-9: ATI-5261 analog with L24A; W9L substitutions (EVRSKLEELLAALRELAEELLARAKS; synthetic amphipathic alpha-helix cholesterol efflux peptide T5505-9, LeuATI-5261 analog) | ~3 µg/mL | 0.58 µg/mL |

Test system: C57Bl/6 mice
Assay: not given
Format: in vivo
Details: 300 mg/kg IP, male chow-fed C57Bl/6 mice, 4 and 6 h
Description: The high-dose cytotoxic response of ATI-5261 observed in rat, rabbit and cynomolgus monkey is additionally recapitulated in mice (FIG. 4). Male chow-fed C57bl/6 mice were injected intraperitonelly (IP) with 30 or 300 mg/kg of lipid-fee ATI-5261. Blood was collected via the retro-orbital plexus 4 h after peptide injection and plasma subsequently obtained for measurement of CPK (Panel A) and ALT and AST activities (Panel B, ALT left bars, AST, right bars). Values are means±SD, n=4 mice per group.
This example illustrates that aromatic phenylalanine residues associated with the non-polar surface of ATI-5261 contributed to the majority of the peptide toxicity (FIG. 5). […] Blood was collected via retro-orbital plexus 4 h after injection for isolation of plasma. Levels of plasma CPK (Panel A), ALT (panel B) and AST (Panel C) were determined as described in FIG. 1. Values are means±SD, n=4 mice per group.
The concentrations of plasma lipids in C57Bl/6 mice following administration of the aliphatic analogs of ATI-5261 was also determined. […] All values (mg/dl) are means±SD, n=4, determined at 4 and 6 h post treatment with peptide.

| Compound | TG elevating effect (plasma TG, cholesterol) |
| --- | --- |
| EARSKAEEWLAALRELAEELLARAKS [Peptide T5505-12] | produced low toxicity and greatly ablated TG elevating effects |
| EVRSKLEEWLAALRELAEELAARLKS [Peptide T4883-7] | further reduced cytotoxic response and TG elevating effects |
| EVRSKLEEWLAALRELAEELLARAKS [Peptide T4883-6] | further reduced cytotoxic response and TG elevating effects |
| EVRSKLEEWLAALRELAEELLARLKS [Peptide T5055-13] | greatly attenuated |
| T5505-9: ATI-5261 analog with L24A; W9L substitutions (EVRSKLEELLAALRELAEELLARAKS; synthetic amphipathic alpha-helix cholesterol efflux peptide T5505-9, LeuATI-5261 analog) | markedly reduced the increase in plasma CPK and AST as well as TG elevating activity |

Same assay, conditions: 300 mg/kg IP, male chow-fed C57Bl/6 mice, 4 h

| Compound | cytotoxic/toxic response (plasma CPK, ALT, AST) | muscle toxicity (plasma CPK activity) | plasma ALT / AST |
| --- | --- | --- | --- |
| EARSKAEEWLAALLELAEELLARAKS [Peptide T5211-2] | displayed little or no toxic responses and low TG in plasma | – | – |
| EARSKAEEWLAALRELAEELLARAKS [Peptide T5505-12] | produced low toxicity and greatly ablated TG elevating effects | – | – |
| EVNSKLEEWLAALNELAEELLARLKS [Peptide T5766-4] | – | greatly reduced the increase in CPK and TG elevating effects | – |
| EVQSKLEEWLAALQELAEELLARLKS [Peptide T5766-3] | – | greatly reduced the increase in CPK and TG elevating effects | – |
| EVRSKLEEWFAAFREFAEEFLARL [Peptide T5766-5] | appeared to reduce the toxic responses | greatly reduced muscle toxicity | – |
| EVRSKLEEWFAAFREFAEEFLARLNS [Peptide T5594-4] | – | greatly reduced muscle toxicity | – |
| EVRSKLEEWIAAIREIAEEILARLKS [Peptide T6991-1] | – | displayed little or no cytotoxic properties related to CPK elevations | – |
| EVRSKLEEWLAALRELAEELAARLKS [Peptide T4883-7] | further reduced cytotoxic response and TG elevating effects | sufficient to eliminate the residual muscle toxicity | – |
| EVRSKLEEWLAALRELAEELLARAKS [Peptide T4883-6] | further reduced cytotoxic response and TG elevating effects | sufficient to eliminate the residual muscle toxicity | – |
| EVRSKLEEWLAALRELAEELLARLKS [Peptide T5055-13] | – | residual toxicity | – |
| EVRSKLQEWFAAFREFAQEFLARLKS [Peptide T5554-1] | produced a large increase in the toxic response | – | – |
| T5505-9: ATI-5261 analog with L24A; W9L substitutions (EVRSKLEELLAALRELAEELLARAKS; synthetic amphipathic alpha-helix cholesterol efflux peptide T5505-9, LeuATI-5261 analog) | – | markedly reduced the increase in plasma CPK and AST as well as TG elevating activity | markedly reduced the increase in plasma CPK and AST as well as TG elevating activity |
| T5554-4: E→Q analog bearing citrulline substitutions (EV[Cit]SKLQEWFAAFREFAEEFLARLKS) [Peptide T5554-4] | retained strong toxic (CPK, ALT, and AST) and TG elevating responses | – | – |
| T5554-5: E→Q analog bearing citrulline substitutions, net charge −1 (EV[Cit]SKLQEWFAAF[Cit]EFAQEFLARLKS) [Peptide T5554-5] | retained strong toxic (CPK, ALT, and AST) and TG elevating responses | – | – |
| T5594-5: ATI-5261 analog with all lysine residues (R>K substitutions) (EVKSKLEEWFAAFKEFAEEFLAKLKS; synthetic amphipathic alpha-helix cholesterol efflux peptide T5594-5, ATI-5261 analog) | displayed cytotoxic and TG elevating activity | – | – |
